Test results from ChEMBL document CHEMBL5154732, “Discovery of indol-6-yl-pyrrolo[2,3-c]pyridin-7-one derivatives as bromodomain-containing protein 4 (BRD4) inhibitors for the treatment of kidney fibrosis” (Eur J Med Chem, 2022).
Active and inactive are the calls of the source. The calls are words filed in the database; no cut-off is given here.

Experiments:
[1] = molecular target: Bromodomain-containing protein 4 (Homo sapiens, UniProt O60885); assay: Inhibition of His-tagged […] recombinant BRD4 (unknown origin) (21 to 153 residues) using SGRGK(Ac)GGK(Ac)GLGK(Ac)GGAK(Ac)RHRK(Biotin)-OH as substrate measured after 1 hr by HTRF assay
Mus musculus [2] = assay: Nephroprotective activity against unilateral ureteral obstruction kidney injury C57BL/6J mouse model assessed as decreased tubular injury score at 100 mg/kg, ip administered for 8 consecutive days by H & E staining based assay; format: functional, organism-based; conditions: time 8.0 day
Mus musculus [3] = assay: Nephroprotective activity against unilateral ureteral obstruction kidney injury C57BL/6J mouse model assessed as decreased kidney damage at 100 mg/kg, ip administered for 8 consecutive days by H & E staining based assay; format: functional, organism-based; conditions: time 8.0 day
Mus musculus [4] = assay: Anti-fibrotic activity against unilateral ureteral obstruction kidney injury C57BL/6J mouse model assessed as suppression of UUO-induced alpha-SMA expression in kidney at 100 mg/kg, ip administered daily measured after 7 days by immunohistochemistry staining analysis; format: functional, organism-based; conditions: time 7.0 day
Mus musculus [5] = assay: Nephroprotective activity against unilateral ureteral obstruction kidney injury C57BL/6J mouse model assessed as decreased fibrotic scores at 100 mg/kg, ip administered for 8 consecutive days by Masson's staining based assay; format: functional, organism-based; conditions: time 8.0 day
[6] = molecular target: Bromodomain testis-specific protein (Homo sapiens, UniProt Q58F21); assay: Inhibition of His-tagged recombinant BRDT (unknown origin) (21 to 153 residues) using SGRGK(Ac)GGK(Ac)GLGK(Ac)GGAK(Ac)RHRK(Biotin)-OH as substrate measured after 1 hr by HTRF assay
[7] = molecular target: Bromodomain-containing protein 3 (Homo sapiens, UniProt Q15059); assay: Inhibition of His-tagged recombinant BRD3 (unknown origin) (11 to 166 residues) using SGRGK(Ac)GGK(Ac)GLGK(Ac)GGAK(Ac)RHRK(Biotin)-OH as substrate measured after 1 hr by HTRF assay
Bromodomain-containing protein 3, sequence (Q15059 whole entry, the tested form may be a part): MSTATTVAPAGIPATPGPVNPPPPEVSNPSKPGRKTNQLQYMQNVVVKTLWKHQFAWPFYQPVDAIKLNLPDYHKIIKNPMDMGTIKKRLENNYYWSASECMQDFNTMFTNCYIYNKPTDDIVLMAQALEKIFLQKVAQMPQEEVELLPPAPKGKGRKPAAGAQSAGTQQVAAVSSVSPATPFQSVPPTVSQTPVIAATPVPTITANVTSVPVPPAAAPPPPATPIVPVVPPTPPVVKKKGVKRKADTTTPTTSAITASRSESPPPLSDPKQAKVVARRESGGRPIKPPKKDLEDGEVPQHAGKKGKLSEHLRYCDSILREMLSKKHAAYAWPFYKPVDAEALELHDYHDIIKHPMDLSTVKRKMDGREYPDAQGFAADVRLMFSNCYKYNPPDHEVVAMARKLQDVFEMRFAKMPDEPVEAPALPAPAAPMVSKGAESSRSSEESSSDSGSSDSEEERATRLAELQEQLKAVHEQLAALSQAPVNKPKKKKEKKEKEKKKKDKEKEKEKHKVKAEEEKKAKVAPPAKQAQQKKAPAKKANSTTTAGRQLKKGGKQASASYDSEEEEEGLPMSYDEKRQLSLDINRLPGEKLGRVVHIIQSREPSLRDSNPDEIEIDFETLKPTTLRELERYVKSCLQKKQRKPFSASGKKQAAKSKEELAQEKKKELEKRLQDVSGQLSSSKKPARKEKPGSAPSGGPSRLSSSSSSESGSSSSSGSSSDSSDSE

[8] = Toxicity in mouse assessed as effect on serum creatinine level at 30 mg/kg/day; format: organism-based; conditions: in vivo
[9] = Toxicity in mouse assessed as pathological changes in liver at 30 mg/kg/day by H and E staining method; format: organism-based; conditions: in vivo
[10] = Toxicity in mouse assessed as effect on alanine aminotransferase level in serum at 30 mg/kg/day; format: organism-based; conditions: in vivo
[11] = Volume of distribution at steady state in ICR mouse at 2 mg/kg, iv measured at 0.083 to 24 hrs by LC-MS/MS analysis; format: ADME, organism-based; conditions: in vivo, time 0.083-24 hrs, read-out: Vdss
[12] = AUC (0 to infinity) in ICR mouse at 30 mg/kg, po measured at 0.083 to 24 hrs by LC-MS/MS analysis; format: ADME, organism-based; design: time lower 0.083 hrs, dose 30 mg/kg, time upper 24 hrs, route po; conditions: in vivo
[13] = AUC (0 to t) in ICR mouse at 30 mg/kg, po measured at 0.083 to 24 hrs by LC-MS/MS analysis; format: ADME, organism-based; design: time lower 0.083 hrs, dose 30 mg/kg, time upper 24 hrs, route po; conditions: in vivo
[14] = Toxicity in mouse assessed as pathological changes in spleen at 30 mg/kg/day by H and E staining method; format: organism-based; conditions: in vivo
[15] = Toxicity in mouse assessed as effect on aspartate aminotransferase level in serum at 30 mg/kg/day; format: organism-based; conditions: in vivo
[16] = molecular target: T1, Bromodomain and PHD finger-containing protein 3 (Homo sapiens, UniProt Q9ULD4); assay: Inhibition of His-tagged recombinant BRPF3 (unknown origin) (11 to 188 residues) using SGRGK(Ac)GGK(Ac)GLGK(Ac)GGAK(Ac)RHRK(Biotin)-OH as substrate measured after 1 hr by HTRF assay
T1 sequence (Q9ULD4 whole entry): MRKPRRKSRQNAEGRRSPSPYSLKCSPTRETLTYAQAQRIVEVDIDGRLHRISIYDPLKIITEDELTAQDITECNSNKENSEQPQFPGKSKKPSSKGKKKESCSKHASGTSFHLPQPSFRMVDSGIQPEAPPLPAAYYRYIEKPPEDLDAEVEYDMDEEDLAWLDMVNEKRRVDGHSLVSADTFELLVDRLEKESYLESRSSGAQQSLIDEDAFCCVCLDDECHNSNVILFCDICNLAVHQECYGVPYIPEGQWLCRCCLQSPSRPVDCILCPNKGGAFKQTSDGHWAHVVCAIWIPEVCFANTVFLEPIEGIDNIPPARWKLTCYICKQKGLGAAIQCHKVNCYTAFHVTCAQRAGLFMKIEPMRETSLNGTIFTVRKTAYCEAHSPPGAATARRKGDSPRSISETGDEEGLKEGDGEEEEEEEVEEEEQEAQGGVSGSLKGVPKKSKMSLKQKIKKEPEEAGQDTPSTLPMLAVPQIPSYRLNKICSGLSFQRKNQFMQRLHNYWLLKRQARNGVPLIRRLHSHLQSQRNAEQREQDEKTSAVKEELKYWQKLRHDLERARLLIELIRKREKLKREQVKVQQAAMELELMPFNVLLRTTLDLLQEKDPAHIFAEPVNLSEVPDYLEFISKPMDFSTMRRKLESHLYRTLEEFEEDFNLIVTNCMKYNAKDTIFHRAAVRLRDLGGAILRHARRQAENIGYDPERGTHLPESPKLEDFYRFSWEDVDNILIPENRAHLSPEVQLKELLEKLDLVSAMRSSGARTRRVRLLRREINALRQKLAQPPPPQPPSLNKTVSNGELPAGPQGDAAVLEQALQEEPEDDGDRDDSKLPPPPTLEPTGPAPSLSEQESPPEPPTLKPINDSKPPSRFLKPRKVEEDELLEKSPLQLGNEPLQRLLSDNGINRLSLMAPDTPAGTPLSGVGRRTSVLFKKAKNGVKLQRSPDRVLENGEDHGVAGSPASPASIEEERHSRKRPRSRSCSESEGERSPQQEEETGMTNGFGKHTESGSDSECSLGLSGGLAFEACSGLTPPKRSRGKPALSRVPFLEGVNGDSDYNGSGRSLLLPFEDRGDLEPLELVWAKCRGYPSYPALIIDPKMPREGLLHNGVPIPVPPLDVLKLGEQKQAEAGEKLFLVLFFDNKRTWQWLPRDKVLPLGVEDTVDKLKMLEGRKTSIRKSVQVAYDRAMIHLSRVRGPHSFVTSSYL

[17] = Tmax in ICR mouse at 30 mg/kg, po measured at 0.083 to 24 hrs by LC-MS/MS analysis; format: ADME, organism-based; conditions: in vivo, time 0.083-24 hrs
[18] = Half life in ICR mouse at 30 mg/kg, po measured at 0.083 to 24 hrs by LC-MS/MS analysis; format: ADME, organism-based; conditions: in vivo, time 0.083-24 hrs
[19] = Toxicity in mouse assessed as pathological changes in heart at 30 mg/kg/day by H and E staining method; format: organism-based; conditions: in vivo
[20] = Toxicity in mouse assessed as effect on serum urea level at 30 mg/kg/day; format: organism-based; conditions: in vivo
[21] = molecular target: Bromodomain-containing protein 2 (Homo sapiens, UniProt P25440); assay: Inhibition of His-tagged recombinant BRD2 (unknown origin) (11 to 162 residues) using SGRGK(Ac)GGK(Ac)GLGK(Ac)GGAK(Ac)RHRK(Biotin)-OH as substrate measured after 1 hr by HTRF assay
Bromodomain-containing protein 2, sequence (P25440 whole entry, the tested form may be a part): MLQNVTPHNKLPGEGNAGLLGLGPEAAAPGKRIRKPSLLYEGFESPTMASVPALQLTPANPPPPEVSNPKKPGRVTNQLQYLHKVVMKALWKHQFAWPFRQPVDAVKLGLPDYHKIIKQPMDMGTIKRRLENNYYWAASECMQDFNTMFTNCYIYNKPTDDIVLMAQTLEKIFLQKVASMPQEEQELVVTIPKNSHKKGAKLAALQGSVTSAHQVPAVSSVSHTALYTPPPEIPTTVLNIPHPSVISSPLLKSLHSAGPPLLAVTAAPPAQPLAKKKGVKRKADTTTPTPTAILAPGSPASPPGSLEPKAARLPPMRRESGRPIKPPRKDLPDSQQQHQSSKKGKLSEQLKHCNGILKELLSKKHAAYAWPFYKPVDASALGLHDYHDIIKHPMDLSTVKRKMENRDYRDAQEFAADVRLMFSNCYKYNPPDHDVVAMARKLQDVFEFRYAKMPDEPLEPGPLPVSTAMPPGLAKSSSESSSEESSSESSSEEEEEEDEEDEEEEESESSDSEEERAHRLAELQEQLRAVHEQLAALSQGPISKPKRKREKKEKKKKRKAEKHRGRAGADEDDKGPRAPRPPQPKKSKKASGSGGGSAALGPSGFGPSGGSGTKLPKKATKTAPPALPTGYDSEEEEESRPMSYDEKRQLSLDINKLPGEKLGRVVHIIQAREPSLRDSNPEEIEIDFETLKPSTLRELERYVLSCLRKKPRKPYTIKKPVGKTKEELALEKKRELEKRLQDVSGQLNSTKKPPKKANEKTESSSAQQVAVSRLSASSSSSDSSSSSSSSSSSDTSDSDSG

[22] = molecular target: T2, Bromodomain-containing protein 1 (Homo sapiens, UniProt O95696); assay: Inhibition of His-tagged recombinant BRD1 (unknown origin) (11 to 190 residues) using SGRGK(Ac)GGK(Ac)GLGK(Ac)GGAK(Ac)RHRK(Biotin)-OH as substrate measured after 1 hr by HTRF assay
T2 sequence (O95696 whole entry): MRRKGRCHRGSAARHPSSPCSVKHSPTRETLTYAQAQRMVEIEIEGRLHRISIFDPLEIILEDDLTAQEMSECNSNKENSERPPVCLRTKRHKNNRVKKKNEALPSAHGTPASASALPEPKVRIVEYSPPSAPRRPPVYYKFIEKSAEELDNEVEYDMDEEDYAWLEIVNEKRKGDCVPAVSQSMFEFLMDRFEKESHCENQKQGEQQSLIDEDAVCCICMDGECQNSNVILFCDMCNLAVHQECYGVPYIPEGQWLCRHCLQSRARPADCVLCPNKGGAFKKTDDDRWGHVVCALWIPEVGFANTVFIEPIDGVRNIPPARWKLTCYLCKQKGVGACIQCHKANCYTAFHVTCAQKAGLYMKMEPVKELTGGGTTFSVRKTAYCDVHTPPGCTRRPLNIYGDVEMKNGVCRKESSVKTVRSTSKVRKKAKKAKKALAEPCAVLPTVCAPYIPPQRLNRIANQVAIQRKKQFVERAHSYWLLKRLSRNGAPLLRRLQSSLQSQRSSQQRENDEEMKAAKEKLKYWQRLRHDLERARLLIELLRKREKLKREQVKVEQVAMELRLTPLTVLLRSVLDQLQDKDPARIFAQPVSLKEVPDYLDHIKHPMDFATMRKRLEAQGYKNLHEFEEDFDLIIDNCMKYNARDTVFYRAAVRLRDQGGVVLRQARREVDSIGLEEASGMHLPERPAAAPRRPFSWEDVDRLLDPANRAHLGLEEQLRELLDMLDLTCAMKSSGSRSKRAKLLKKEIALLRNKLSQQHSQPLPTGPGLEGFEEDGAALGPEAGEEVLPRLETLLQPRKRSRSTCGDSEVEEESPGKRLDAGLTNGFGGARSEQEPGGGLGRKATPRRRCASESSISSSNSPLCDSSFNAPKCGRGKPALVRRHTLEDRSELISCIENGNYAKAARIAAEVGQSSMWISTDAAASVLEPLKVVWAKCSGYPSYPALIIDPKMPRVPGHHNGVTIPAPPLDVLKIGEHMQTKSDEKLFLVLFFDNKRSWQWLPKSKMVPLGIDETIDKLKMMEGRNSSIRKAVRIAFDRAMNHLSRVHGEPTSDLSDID

[23] = Clearance in ICR mouse at 2 mg/kg, iv measured at 0.083 to 24 hrs by LC-MS/MS analysis; format: ADME, organism-based; conditions: in vivo, time 0.083-24 hrs
[24] = Cmax in ICR mouse at 30 mg/kg, po measured at 0.083 to 24 hrs by LC-MS/MS analysis; format: ADME, organism-based; design: time 0.083-24 hrs, dose 30 mg/kg, route po; conditions: in vivo
[25] = Toxicity in mouse assessed as pathological changes in lung at 30 mg/kg/day by H and E staining method; format: organism-based; conditions: in vivo
[26] = Oral bioavailability in ICR mouse at 30 mg/kg measured at 0.083 to 24 hrs by LC-MS/MS analysis; format: ADME, organism-based; conditions: in vivo, time 0.083-24 hrs

## Cc1noc(C)c1-c1ccc2ccn(Cc3ccc(C(F)(F)F)cc3)c2c1
[1]
  IC50: > 3000 nM

## O=C1NC=C(c2ccc3ccn(Cc4ccccc4)c3c2)C2C=CNC12 (stereo not drawn)
[1]
  IC50: 471 nM

## CCCC(C)n1ccc2ccc(-c3c(C)noc3C)cc21 (stereo not drawn)
[1]
  IC50: 2440 nM

## Cc1cn(Cc2cc(F)cc(F)c2)c2cc(C3=CN(C)C(=O)C4NC=CC34)ccc12 (stereo not drawn)
[1]
  IC50: 419 nM

## Cc1noc(C)c1-c1ccc2c(C)cn(Cc3ccccc3)c2c1
[1]
  IC50: > 3000 nM

## Cc1sc2c(c1C)C(c1ccc(Cl)cc1)=N[C@@H](C(=O)OC(C)(C)C)c1nnc(C)n1-2
Mus musculus [2]
  Activity: Active
[1]
  IC50: 92 nM
Mus musculus [3]
  Activity: Active
Mus musculus [4]
  Activity: Active
Mus musculus [5]
  Activity: Active

## Cn1cc(-c2ccc3ccn(Cc4ccccn4)c3c2)c2cc[nH]c2c1=O
[6]
  IC50: > 1000 nM
[7]
  IC50: 502 nM
[8]
  Activity: Non-Toxic
[9]
  Activity: Non-Toxic
[10]
  Activity: Non-Toxic
[11]
  Vd: 2.08 L/kg
[12]
  AUC(0-inf): 323 ng·h/mL
[13]
  AUC(0-t): 319 ng·h/mL
[14]
  Activity: Non-Toxic
[15]
  Activity: Non-Toxic
[16]
  IC50: > 1000 nM
[1]
  IC50: 107 nM
[17]
  Tmax: 11.4 min
[18]
  half-life: 80.4 min
[19]
  Activity: Non-Toxic
[20]
  Activity: Non-Toxic
[21]
  IC50: 718 nM
[22]
  IC50: > 1000 nM
[23]
  clearance: 125 mL/min/kg
[24]
  Cmax: 390 ng/mL
[25]
  Activity: Non-Toxic
[26]
  bioavailability: 7.91%

## Cc1noc(C)c1-c1ccc2ccn(Cc3cc(F)cc(F)c3)c2c1
[1]
  IC50: > 3000 nM

## COc1cc(Cn2ccc3ccc(C4=CNC(=O)C5NC=CC45)cc32)cc(OC)c1 (stereo not drawn)
[1]
  IC50: 559 nM

## Cc1cn(Cc2ccccc2)c2cc(-c3cn(C)c(=O)c4[nH]ccc34)ccc12
[1]
  IC50: 514 nM

## COc1cc(Cn2ccc3ccc(-c4c(C)noc4C)cc32)cc(OC)c1
[1]
  IC50: > 3000 nM

## Cc1noc(C)c1-c1ccc2ccn(Cc3ccc(F)cc3)c2c1
[1]
  IC50: > 3000 nM

## Cc1noc(C)c1-c1ccc2ccn(C3CCCC3)c2c1
[1]
  IC50: > 3000 nM

## O=C1NC=C(c2ccc3ccn(Cc4cc(F)cc(F)c4)c3c2)C2C=CNC12 (stereo not drawn)
[1]
  IC50: 347 nM

## Cc1noc(C)c1-c1ccc2ccn(Cc3ccccc3)c2c1
[1]
  IC50: 2650 nM

## CCC(C)n1ccc2ccc(-c3c(C)noc3C)cc21 (stereo not drawn)
[1]
  IC50: > 3000 nM

## Cc1noc(C)c1-c1ccc2ccn(C(C)c3ccccc3)c2c1 (stereo not drawn)
[1]
  IC50: > 3000 nM

## O=C1NC=C(c2ccc3ccn(Cc4ccc(F)cc4)c3c2)C2C=CNC12 (stereo not drawn)
[1]
  IC50: 417 nM

## CC(c1ccccc1)n1ccc2ccc(-c3cn(C)c(=O)c4[nH]ccc34)cc21 (stereo not drawn)
[1]
  IC50: 504 nM

## CCC(C)n1ccc2ccc(-c3cn(C)c(=O)c4[nH]ccc34)cc21 (stereo not drawn)
[1]
  IC50: 674 nM

## CCCC(C)n1ccc2ccc(C3=CNC(=O)C4NC=CC34)cc21 (stereo not drawn)
[1]
  IC50: 578 nM

## Cc1noc(C)c1-c1ccc2c(C)cn(Cc3cc(F)cc(F)c3)c2c1
[1]
  IC50: > 3000 nM

## Cc1noc(C)c1-c1ccc2ccn(Cc3ccccn3)c2c1
[1]
  IC50: 481 nM
